Assay results taken from US20260250320A1, “LIPIDATED PEPTIDE INHIBITORS OF INTERLEUKIN-23 RECEPTOR” (Janssen Pharmaceutica NV, priority 2023, published 2026).
pIC50: −log10 of the molar value. *1 amine or outer side, *2 acyl side, *3 side chain or, on linkers, in order; H or OH if unused. Where a SMILES comes first, the peptide text is derived from it. Bridges are numbered along the chain shown (N, C = ends). Side-chain parts run from the residue outwards. [ ]: non-standard residue; d: D form. The star is where a group is joined. ξ: configuration not given here. X21 = NC(=O)C[C@H](N[*:1])C(=O)C[C@@H](Cc1cccnc1)C(=O)[*:2]; Me3N+(CH2)2O(CH2)2O(CH2)2CO = C[N+](C)(C)CCOCCOCCC(=O)*; PEG12 = NCCOCCOCCOCCOCCOCCOCCOCCOCCOCCOCCOCCOCCC(=O)O; CH2CH2OCH2CH2OCH2CH2NMe3+ = C[N+](C)(C)CCOCCOCC*; Trp(7-Me) = Cc1cccc2c(C[C@H](N)C(=O)O)c[nH]c12; d(γGlu) = O=C(O)[C@@H](CCC(=O)[*:2])N[*:1]; C18 diacid = O=C(O)CCCCCCCCCCCCCCCCC(=O)*; γGlu = O=C(O)[C@H](CCC(=O)[*:2])N[*:1]; 2Nal = N[C@@H](Cc1ccc2ccccc2c1)C(=O)O; AEF = NCCOc1ccc(C[C@H](N)C(=O)O)cc1; X2 = C[N+](C)(C)C[C@@H](CC(=O)O)N*; 3Pal = N[C@@H](Cc1cccnc1)C(=O)O; Lys(Me) = CNCCCC[C@H](N)C(=O)O; NMeK = CN[C@@H](CCCCN)C(=O)O; Pen = CC(C)(S)[C@H](N)C(=O)O; Suc = O=C(CCC(=O)[*:2])[*:1]; Thp = NC1(C(=O)O)CCOCC1; X1 = C[N+](C)(C)CCCCC*; AEEA = NCCOCCOCC(=O)O; ξK = NCCCCC(N)C(=O)O; Sar = CNCC(=O)O

Legend:
[1] = molecular target: T1, IL-23R (Homo sapiens, UniProt Q5VWK5); test: IL23R Reporter Assay; format: cell-based; settings: HEK293 cells containing IL-23R, IL-12Rβ1 and STAT-inducible firefly luciferase reporter; 10 ng/mL IL-23 (EC90); 5 h
T1 construct: HEK293 cells containing IL-23R, IL-12Rβ1 and a firefly luciferase reporter gene driven by a STAT-inducible promoter (Promega); host or cells: HEK293
T1 sequence (Q5VWK5 24-629): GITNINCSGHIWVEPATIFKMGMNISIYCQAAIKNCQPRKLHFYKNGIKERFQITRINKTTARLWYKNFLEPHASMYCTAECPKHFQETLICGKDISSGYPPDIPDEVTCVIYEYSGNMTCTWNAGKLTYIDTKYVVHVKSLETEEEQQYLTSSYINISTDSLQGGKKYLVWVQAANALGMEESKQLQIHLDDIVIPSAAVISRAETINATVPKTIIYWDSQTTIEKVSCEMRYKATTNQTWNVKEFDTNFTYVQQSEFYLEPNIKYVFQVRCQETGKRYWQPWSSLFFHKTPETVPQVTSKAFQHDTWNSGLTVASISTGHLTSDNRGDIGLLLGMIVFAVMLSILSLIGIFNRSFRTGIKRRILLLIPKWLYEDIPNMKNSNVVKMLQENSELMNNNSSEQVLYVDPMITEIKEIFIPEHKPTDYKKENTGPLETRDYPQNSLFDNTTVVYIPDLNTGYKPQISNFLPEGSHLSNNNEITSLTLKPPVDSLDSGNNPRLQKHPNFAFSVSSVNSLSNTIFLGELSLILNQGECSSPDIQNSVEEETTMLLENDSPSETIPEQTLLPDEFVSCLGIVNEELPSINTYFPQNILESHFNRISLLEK
Outline: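 HEK293 cells carrying IL-23R, IL-12Rβ1 and a STAT-driven firefly luciferase reporter (4000 cells/well) received compound, then 10 ng/mL IL-23 solution (EC90), and were incubated for 5 h at 37° C. BioGlo luminescence was normalised to IL-23 alone (0%) and 30 μM control inhibitor (100%). IC50 came from a 4-parameter Hill fit.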

[2] = test system: IL-23-stimulated phosphorylated STAT3 in peripheral blood mononuclear cells (PBMCs); test: PBMC pSTAT3 Assay; format: cell-based; settings: PBMCs from healthy donors; 30 min preincubation with peptide; IL-23 5 ng/mL for 30 min; phospho-STAT3 by MSD
Outline: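 Healthy-donor PBMCs expanded 4 days on anti-CD3 with 100 ng/mL IL-1β, starved ~4 h in RPMI-0.1% BSA, preincubated 30 min with peptide, then stimulated 30 min at 37 °C with 5 ng/mL IL-23. Lysate pSTAT3 measured by MSD phospho-STAT panel; IC50 derived.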

| pIC50 [1] | SMILES | pIC50 [2] |
| --- | --- | --- |
| > 7.30 | CC(=O)N(C)CCCC[C@@H]1NC(=O)[C@H](Cc2c[nH]c3c(C)cccc23)NC(=O)[C@H]([C@@H](C)O)NC(=O)[C@H](CC(=O)N(C)C)NC(=O)[C@@H](NC(=O)CCOCCOCCOCCOCCOCCOCCOCCOCCOCCOCCOCCOCCNC(=O)CC[C@H](NC(=O)CCCCCCCCCCCCCCCCC(=O)O)C(=O)O)C(C)(C)SSC(C)(C)[C@@H](C(=O)N[C@@H](Cc2ccc(OCCOCCOCC[N+](C)(C)C)cc2)C(=O)N[C@@H](Cc2ccc3ccccc3c2)C(=O)NC2(C(=O)N[C@@H](CCCCN(C)C(C)=O)C(=O)N[C@@H](CC(N)=O)C(=O)N[C@@H](Cc3cccnc3)C(=O)N(C)CC(=O)N(C)C)CCOCC2)NC1=O [compound 108, HOC18gEPEG12CO-Pen(3)-N(N(Me)2)-T-7MeW-K(NMeAc)-Pen(3)-APEG3F-2Nal-THP-K(NMeAc)-N-3Pya-Sar-CON(Me)2] ({C18 diacid-γGlu-PEG12}-[Pen]D(NMe2)T[Trp(7-Me)][Lys(Me)](Ac)[Pen]Y(CH2CH2OCH2CH2OCH2CH2NMe3+)[2Nal][Thp][Lys(Me)](Ac)N[3Pal][Sar]-NMe2; disulfide 1-6) | > 9.30 |
| > 7.30 | CC(=O)N(C)CCCC[C@@H]1NC(=O)[C@H](Cc2c[nH]c3c(C)cccc23)NC(=O)[C@H]([C@@H](C)O)NC(=O)[C@H](CC(=O)N(C)C)NC(=O)[C@@H](NC(=O)CCOCCOCC[N+](C)(C)C)C(C)(C)SSC(C)(C)[C@@H](C(=O)N[C@@H](Cc2ccc(OCCCCC[N+](C)(C)C)cc2)C(=O)N[C@@H](Cc2ccc3ccccc3c2)C(=O)NC2(C(=O)N[C@@H](CCCCNC(=O)COCCOCCNC(=O)COCCOCCNC(=O)CC[C@H](NC(=O)CCCCCCCCCCCCCCCCC(=O)O)C(=O)O)C(=O)N[C@@H](CC(N)=O)C(=O)N[C@@H](Cc3ccccc3)C(=O)N(C)CC(=O)N(C)C)CCOCC2)NC1=O [compound 120, cPEG3aCO-Pen(3)-N(N(Me)2)-T-7MeW-K(NMeAc)-Pen(3)-TMAPF-2Nal-THP-K(PEG2PEG2gEC18OH)-N-3Pya-Sar-CON(Me)2] ({Me3N+(CH2)2O(CH2)2O(CH2)2CO}-[Pen]D(NMe2)T[Trp(7-Me)][Lys(Me)](Ac)[Pen]Y(X1)[2Nal][Thp]K([AEEA-AEEA-γGlu-C18 diacid])NF[Sar]-NMe2; disulfide 1-6) | > 9.30 |
| 6.30 to 7.30 | C=C(N[C@@H](CC(N)=O)C(=O)N[C@@H](CC)C(C)N(C)CC(=O)N(C)C)[C@H](CCCCN(C)C(C)=O)NC(=O)C1(NC(=O)[C@H](Cc2ccc3ccccc3c2)NC(=O)[C@H](Cc2ccc(OCCCCC[N+](C)(C)C)cc2)NCC2NC(=O)[C@H](CCCCNC(=O)COCCOCCNC(=O)COCCOCCNC(=O)CC[C@H](NC(=O)CCCCCCCCCCCCCCCCCCC(=O)O)C(=O)O)NC(=O)[C@H](CC3=CCc4c(C)cccc43)NC(=O)[C@H]([C@@H](C)O)NC(=O)[C@H](CC(=O)N(C)C)NC(=O)[C@@H](NC(=O)CCOCCOCC[N+](C)(C)C)C(C)(C)SSC2(C)C)CCCCC1 (stereo partly drawn) [compound 127, cPEG3aCO-Pen(3)-N(N(Me)2)-T-7MeW-K(PEG2PEG2gEC20OH)-Pen(3)-TMAPF-2Nal-THP-K(NMeAc)-N-3Pya-Sar-CON(Me)2] | 8.30 to 9.30 |

Further lines, the compound ahead of its results:

| SMILES | pIC50 [1] | pIC50 [2] |
| --- | --- | --- |
| CC(=O)NCCCC[C@H](NC(=O)C1(NC(=O)[C@H](Cc2ccc3ccccc3c2)NC(=O)[C@H](Cc2ccc(OCCN)cc2)NC(=O)[C@@H](NC(=O)[C@@H](N)CCCCNC(C)=O)C(C)(C)SSC(C)(C)[C@H](NC(C)=O)C(=O)N[C@@H](CC(N)=O)C(=O)N[C@H](C(=O)N[C@H](Cc2c[nH]c3c(C)cccc23)C(C)=O)[C@@H](C)O)CCOCC1)C(=O)N[C@@H](CC(N)=O)C(=O)N[C@@H](Cc1cccnc1)C(=O)N(C)CC(=O)N[C@@H](CCCCNC(=O)COCCOCCN(C)C(=O)COCCOCCN(C)C(=O)CC[C@@H](C(=O)O)N(C)C(=O)CCCCCCCCCCCCCCCCCc1nnn[nH]1)C(N)=O [compound 2, MeCO-Pen(3)-N-T-7MeW-K(Ac)-Pen(3)-AEF-2Nal-THP-K(Ac)-N-3Pya-Sar-K(PEG2NMePEG2NMegENMeC18Tetrazole)-CONH2] | 6.30 to 7.30 | > 9.30 |
| CC(=O)N(C)CCCC[C@@H]1NC(=O)[C@H](Cc2c[nH]c3c(C)cccc23)NC(=O)[C@H]([C@@H](C)O)NC(=O)[C@H](CC(=O)N(C)C)NC(=O)[C@@H](NC(=O)CCOCCOCC[N+](C)(C)C)C(C)(C)SSC(C)(C)[C@@H](C(=O)N[C@@H](Cc2ccc(OCCOCCOCC[N+](C)(C)C)cc2)C(=O)N[C@@H](Cc2ccc3ccccc3c2)C(=O)NC2(C(=O)N[C@@H](CCCCN(C)C(C)=O)C(=O)N[C@@H](CC(N)=O)C(=O)N[C@@H](Cc3cccnc3)C(=O)N(C)[C@@H](CCCCNC(=O)CCOCCOCCOCCOCCOCCOCCOCCOCCOCCOCCOCCOCCNC(=O)CC[C@H](NC(=O)CCCCCCCCCCCCCCCCC(=O)O)C(=O)O)C(N)=O)CCOCC2)NC1=O [compound 107, cPEG3aCO-Pen(3)-N(N(Me)2)-T-7MeW-K(NMeAc)-Pen(3)-APEG3F-2Nal-THP-K(NMeAc)-N-3Pya-NMeK(PEG12gEC18OH)-CONH2] ({Me3N+(CH2)2O(CH2)2O(CH2)2CO}-[Pen]D(NMe2)T[Trp(7-Me)][Lys(Me)](Ac)[Pen]Y(CH2CH2OCH2CH2OCH2CH2NMe3+)[2Nal][Thp][Lys(Me)](Ac)N[3Pal][NMeK]([PEG12-γGlu-C18 diacid])-NH2; disulfide 1-6) | > 7.30 | > 9.30 |
| CC(=O)NC(CCCCNC(=O)COCCOCCNC(=O)COCCOCCNC(=O)CC[C@@H](NC(=O)CCCCCCCCCCCCCCCCC(=O)O)C(=O)O)C(=O)N[C@@H]1C(=O)N[C@@H](CC(N)=O)C(=O)N[C@@H]([C@@H](C)O)C(=O)N[C@@H](Cc2c[nH]c3c(C)cccc23)C(=O)N[C@@H](CCCCNC(=O)CCC(=O)N[C@H](CC(=O)O)C[N+](C)(C)C)C(=O)N[C@H](C(=O)N[C@@H](Cc2ccc(OCCN)cc2)C(=O)N[C@@H](Cc2ccc3ccccc3c2)C(=O)NC2(C(=O)N[C@@H](CCC(=O)O)C(=O)N[C@@H](CC(N)=O)C(=O)N[C@@H](Cc3cccnc3)C(=O)N(C)CC(N)=O)CCOCC2)C(C)(C)SSC1(C)C (stereo partly drawn) [compound 34, MeCO-k(PEG2PEG2gEC18OH)-Pen(3)-N-T-7MeW-K(d)-Pen(3)-AEF-2Nal-THP-E-N-3Pya-Sar-CONH2] (Ac-[ξK]([AEEA-AEEA-d(γGlu)-C18 diacid])[Pen]NT[Trp(7-Me)]K([Suc-X2])[Pen][AEF][2Nal][Thp]EN[3Pal][Sar]-NH2; disulfide 2-7) | > 7.30 | > 9.30 |
| CC(=O)NCCCC[C@@H]1NC(=O)[C@H](Cc2c[nH]c3c(C)cccc23)NC(=O)[C@H]([C@@H](C)O)NC(=O)[C@H](CCCCNC(=O)COCCOCCNC(=O)COCCOCCNC(=O)CC[C@H](NC(=O)CCCCCCCCCCCCCCCCC(=O)O)C(=O)O)NC(=O)[C@@H](NC(=O)[C@@H](CCCNC(=N)N)NC(=O)CCOCCOCC[N+](C)(C)C)C(C)(C)SSC(C)(C)[C@@H](C(=O)N[C@@H](Cc2ccc(OCCN)cc2)C(=O)N[C@@H](Cc2ccc3ccccc3c2)C(=O)NC2(C(=O)N[C@@H](CCC(=O)O)C(=O)N[C@@H](CC(N)=O)C(=O)N[C@@H](Cc3cccnc3)C(=O)N(C)CC(N)=O)CCOCC2)NC1=O [compound 55, cPEG3aCO-r-Pen(3)-K(PEG2PEG2gEC18OH)-T-7MeW-K(Ac)-Pen(3)-AEF-2Nal-THP-E-N-3Pya-Sar-CONH2] ({Me3N+(CH2)2O(CH2)2O(CH2)2CO}-[dR][Pen]K([AEEA-AEEA-γGlu-C18 diacid])T[Trp(7-Me)]K(Ac)[Pen][AEF][2Nal][Thp]EN[3Pal][Sar]-NH2; disulfide 2-7) | 6.30 to 7.30 | > 9.30 |
| CC(=O)N[C@H](CCCNC(=N)N)C(=O)N[C@@H]1C(=O)N[C@@H](CC(N)=O)C(=O)N[C@@H]([C@@H](C)O)C(=O)N[C@@H](Cc2c[nH]c3c(C)cccc23)C(=O)N[C@@H](CCCCNC(=O)COCCOCCNC(=O)COCCOCCNC(=O)CC[C@H](NC(=O)CCCCCCCCCCCCCCCCC(=O)O)C(=O)O)C(=O)N[C@H](C(=O)N[C@@H](Cc2ccc(OCCN)cc2)C(=O)N[C@@H](Cc2ccc3ccccc3c2)C(=O)NC2(C(=O)N[C@@H](CCCCN(C)C(=O)CCOCCOCC[N+](C)(C)C)C(=O)N[C@@H](CC(N)=O)C(=O)C[C@@H](Cc3cccnc3)C(=O)N(C)CC(N)=O)CCOCC2)C(C)(C)SSC1(C)C [compound 79, MeCO-r-Pen(3)-N-T-7MeW-K(PEG2PEG2gEC18OH)-Pen(3)-AEF-2Nal-THP-K(NMecPEG3a)-N-3Pya-Sar-CONH2] (Ac-[dR][Pen]NT[Trp(7-Me)]K([AEEA-AEEA-γGlu-C18 diacid])[Pen][AEF][2Nal][Thp][Lys(Me)](Me3N+(CH2)2O(CH2)2O(CH2)2CO)[X21][Sar]-NH2; disulfide 2-7) | 6.30 to 7.30 | > 9.30 |
